# Test results from article PMC8556085, “Antimicrobial and Antioxidant Secondary Metabolites from Trifolium baccarinii Chiov. (Fabaceae) and Their Mechanisms of Antibacterial Action” (BioMed Research International, 2021).
# Like-named read-outs stand apart in the source and are kept apart here. Marks after values point to notes of the source that are not given here.
# Assays:
# [1] = DPPH free radical scavenging assay; conditions: for DPPH free radical scavenging activity (EC50): mean ± SD
# Description: The free radical scavenging activity of extracts and compounds was evaluated according to the described method. The EC50 (μg/mL), which is the amount of sample necessary to inhibit by 50% the absorbance of free radical DPPH, was calculated. Vitamin C was used as a standard control. All the analyses were carried out in triplicate and repeated three times.
# [2] = system: Candida albicans ATCC10231; assay: Broth microdilution MIC/MMC; format: cell-based; conditions: for MIC: Candida albicans ATCC10231, 48 h, 30°C
# Description: (§1) The antimicrobial activity was performed against five bacterial and two fungal species. The selected microorganisms were the Gram-positive (Staphylococcus aureus ATCC25923, methicillin-resistant Staphylococcus aureus 03 (MRSA03), and methicillin-resistant Staphylococcus aureus 04 (MRSA04)) and Gram-negative (Pseudomonas aeruginosa ATCC27853 and Escherichia coli S2(1)) bacteria and yeast strains of Candida albicans ATCC10231 and Cryptococcus neoformans H99. These microorganisms were taken from our laboratory collection. The fungal and bacterial strains were conserved on Sabouraud Dextrose Agar (SDA, Conda, Madrid, Spain) and nutrient agar (NA, Conda) slants, respectively.
# (§2) The antimicrobial activity was investigated by determining the minimum inhibitory concentrations (MICs), minimum bactericidal concentrations (MBC), and minimum fungicidal concentrations (MFCs). MICs of extracts/compounds were monitored using the broth microdilution method. Dimethyl sulfoxide (DMSO, Fisher Chemicals) was used to dissolve the test sample to produce a stock solution that was twofold serially diluted in Mueller-Hinton broth (MHB) for bacteria and Sabouraud Dextrose Broth (SDB) for fungi to obtain a concentration range of 4096 to 0.25 μg/mL. One hundred microliters of each concentration was introduced into a well (96-well microplate) containing 90 μL of SDB or MHB and 10 μL of inoculum (at 1 × 10^6 CFU/mL for bacteria and 1 × 10^5 spores/mL for yeasts) which were added to obtain a final concentration range of 2048 to 0.125 μg/mL. Plates were covered and incubated on the shaker at 37°C, 30°C, and 30°C during 24 h, 48 h, and 72 h for bacteria, Candida albicans, and Cryptococcus neoformans, respectively. The MICs were visually assessed after the incubation period and were considered the lowest sample concentration that inhibits the growth or the visual growth of the organism.
# (§3) The positive controls were oxacillin (Sigma-Aldrich, Steinheim, Germany) for bacteria and nystatin (Sigma-Aldrich, Steinheim, Germany) for yeasts, and the negative control was broth with 20 μL of DMSO. The assay was carried out in triplicate.
# [3] = system: Cryptococcus neoformans H99; assay: Broth microdilution MIC/MMC; format: cell-based; conditions: for MIC: Cryptococcus neoformans H99, 72 h, 30°C
# Description: as §1, §2, §3
# Escherichia coli S2(1) = assay: Broth microdilution MIC/MMC; format: cell-based; conditions: for MIC: 24 h, 37°C, read-out: MIC
# Description: as §1, §2, §3
# [4] = system: Pseudomonas aeruginosa ATCC27853; assay: Broth microdilution MIC/MMC; format: cell-based; conditions: for MBC / MMC/MIC: Pseudomonas aeruginosa ATCC27853; for MIC: Pseudomonas aeruginosa ATCC27853, 24 h, 37°C, read-out: MIC
# Description: as §1, §2, §3
# [5] = system: Staphylococcus aureus ATCC25923; assay: Broth microdilution MIC/MMC; format: cell-based; conditions: for MBC / MMC/MIC: Staphylococcus aureus ATCC25923; for MIC: Staphylococcus aureus ATCC25923, 24 h, 37°C, read-out: MIC
# Description: as §1, §2, §3
# [6] = system: methicillin-resistant Staphylococcus aureus 03 (MRSA03); assay: Broth microdilution MIC/MMC; format: cell-based; conditions: for MMC/MIC / MBC: MRSA03; for MBC / MIC: Staphylococcus aureus; for MIC: MRSA03, 24 h, 37°C, read-out: MIC
# Description: as §1, §2, §3
# [7] = system: methicillin-resistant Staphylococcus aureus 04 (MRSA04); assay: Broth microdilution MIC/MMC; format: cell-based; conditions: for MMC/MIC / MBC: MRSA04; for MBC / MIC: Staphylococcus aureus; for MIC: MRSA04, 24 h, 37°C, read-out: MIC
# Description: as §1, §2, §3
# [8] = system: tested bacteria and yeasts; assay: Broth microdilution MIC/MMC, summary over all strains; format: cell-based; conditions: for antimicrobial activity class of pure compounds by cutoff points: against specific microorganism, cutoff points of ref 33; for MIC: read-out: MIC (range over the tested microorganisms)
# Description: as §1, §2, §3
# [9] = Gallic acid equivalent antioxidant capacity (GEAC) assay; conditions: for Gallic acid equivalent antioxidant capacity (GEAC): ABTS radical, 420 nm, 240 s, mean ± SD
# Description: The GEAC test was performed as described previously with some slight modifications. The laccase was purified from Sclerotinia sclerotiorum according to the described protocol. 20 μL of laccase (1 mM stock solution), 20 μL of test sample, 10 μL of ABTS (2,2′-azino-bis(3-ethylbenzothiazoline-6-sulfonic acid) (74 mM stock solution), and 950 μL of acetate buffer (pH = 5.0, 100 mM) were added in a quartz cuvette. The concentrations of the samples in the assay mixture were 800, 400, 200, 100, and 10 μg/mL for the extracts and 200, 100, 50, 25, and 12.5 μg/mL for the isolated compounds. The content of the generated ABTS^●+ radical was measured at 420 nm after 240 s reaction time and was converted to gallic acid equivalents by the use of a calibration curve (Pearson's correlation coefficient: r = 0.998) constructed with 0, 4, 10, 14, 28, 56, and 84 μM gallic acid standards rather than Trolox. Experiments were done in triplicate and repeated three times with similar results.
SMILES,DPPH free radical scavenging activity (EC50) [1],MFC ([2]; Candida albicans ATCC10231),MIC ([2]; read-out: MIC),MFC ([3]; Cryptococcus neoformans H99),MMC/MIC ([3]; Cryptococcus neoformans H99),MIC ([3]; read-out: MIC),MBC (Escherichia coli S2(1)),MMC/MIC (Escherichia coli S2(1)),MIC (Escherichia coli S2(1)),MBC [4],MMC/MIC [4],MIC [4],MBC [5],MIC [5],MBC [6],MIC [6],MBC [7],MIC [7],antimicrobial activity class of pure compounds by cutoff points [8],MIC [8],also measured
"O=C1O[C@H]([C@@H](O)CO)C(O)=C1O [Vitamin C, reference compound]",1.81 ± 0.19^h μg/mL,,,,,,,,,,,,,,,,,,,,
"COc1ccc(-c2coc3cc(O)cc(O)c3c2=O)cc1 [compound 1, biochanin A]",4.87 ± 0.43^d μg/mL,64 µg/mL,32 µg/mL,32 µg/mL,1,32 µg/mL,64 µg/mL,2,32 µg/mL,64 µg/mL,2,32 µg/mL,32 µg/mL,32 µg/mL,128 µg/mL,64 µg/mL,128 µg/mL,64 µg/mL,moderate,32 to 64 µg/mL,MMC/MIC ([2]; Candida albicans ATCC10231): 2; MMC/MIC [5]: 1; MMC/MIC [6]: 2; MMC/MIC [7]: 2; Gallic acid equivalent antioxidant capacity (GEAC) [9]: 101.77 ± 1.24^d μg/mL
"O=c1cc(-c2ccc(O[C@@H]3O[C@H](CO)[C@@H](O)[C@H](O)[C@H]3O)c(O)c2)oc2cc(O)cc(O)c12 [compound 4, luteolin-4′-O-β-D-glucopyranoside]",3.71 ± 0.99^d μg/mL,16 µg/mL,16 µg/mL,16 µg/mL,1,16 µg/mL,32 µg/mL,1,32 µg/mL,128 µg/mL,2,64 µg/mL,64 µg/mL,32 µg/mL,128 µg/mL,64 µg/mL,128 µg/mL,64 µg/mL,moderate,16 to 64 µg/mL,MMC/MIC ([2]; Candida albicans ATCC10231): 1; MMC/MIC [5]: 2; MMC/MIC [6]: 2; MMC/MIC [7]: 2; Gallic acid equivalent antioxidant capacity (GEAC) [9]: 118.71 ± 0.19^g μg/mL
"COc1ccc(-c2coc3cc(OC4OC(CO)C(O)C(O)C4O)cc(O)c3c2=O)cc1 (stereo not drawn) [compound 6, sissotrin]",7.13 ± 0.97^e μg/mL,> 256 µg/mL,64 µg/mL,256 µg/mL,8,32 µg/mL,128 µg/mL,2,64 µg/mL,256 µg/mL,2,128 µg/mL,128 µg/mL,64 µg/mL,> 256 µg/mL,256 µg/mL,> 256 µg/mL,256 µg/mL,moderate/low,32 to 256 µg/mL,MMC/MIC [5]: 2; Gallic acid equivalent antioxidant capacity (GEAC) [9]: 72.96 ± 1.54^i μg/mL
"CO[C@@H]1O[C@H](CO)[C@@H](O)[C@H](O)[C@H]1O [compound 7, 1-methyl-β-D-glucopyranoside]",,> 256 µg/mL,> 256 µg/mL,> 256 µg/mL,,> 256 µg/mL,> 256 µg/mL,,> 256 µg/mL,> 256 µg/mL,,> 256 µg/mL,> 256 µg/mL,> 256 µg/mL,> 256 µg/mL,> 256 µg/mL,> 256 µg/mL,> 256 µg/mL,not active,> 256 µg/mL,antimicrobial activity ([8]; against the tested microorganisms): not active; activity in DPPH assay [1]: inactive; activity in TEAC assay [9]: inactive
"COc1ccc(-c2coc3cc(O[C@@H]4O[C@H](CO)[C@@H](O)[C@H](O)[C@H]4O)ccc3c2=O)cc1 [compound 8, ononin]",38.96 ± 1.54^g μg/mL,> 256 µg/mL,128 µg/mL,> 256 µg/mL,,64 µg/mL,256 µg/mL,2,128 µg/mL,256 µg/mL,1,256 µg/mL,256 µg/mL,64 µg/mL,> 256 µg/mL,256 µg/mL,> 256 µg/mL,256 µg/mL,moderate/low,64 to 256 µg/mL,MMC/MIC [5]: 4; Gallic acid equivalent antioxidant capacity (GEAC) [9]: 57.43 ± 0.97^j μg/mL
"C[C@@H]1[C@H](O)[C@@H](C)/C=C/C=C/CC/C=C/C=C/C=C/C=C/C(O[C@H]2O[C@H](C)[C@@H](O)[C@H](N)[C@@H]2O)CC2O[C@](O)(CC(O)C(O)CCC(O)CC(O)CC(O)CC(=O)O[C@H]1C)CC(O)C2C(=O)O (stereo partly drawn) [nystatin, reference compound]",,,,,1,,,,,,,,,,,,,,,,MMC ([2]; Candida albicans ATCC10231): 1 µg/mL; MMC/MIC ([2]; Candida albicans ATCC10231): 1; MIC [2]: 1 µg/mL; MMC ([3]; Cryptococcus neoformans H99): 2 µg/mL; MIC [3]: 2 µg/mL; MMC/MIC (microbicidal activities) ([8]; against all the tested microorganisms): ≤ 4
